According to US8562949B2, “Radiolabeled dihydrotetrabenazine derivatives and their use as imaging agents” (The Trustees of the University of Pennsylvania, priority 2006, dated 2013):
“And” between values parts separate entries of the source, which are not always exact repeats. Equal entries are not always repeated.

Experiments:
[1] = Biodistribution of [18F]6a and [18F]6b in normal mice (iv injection); type: in vivo, ICR mice
Experimental: While under isoflurane anesthesia, 0.15 mL of a 0.1% bovine serum albumin solution containing [^18F]tracers (10-20 μCi) were injected directly into the tail vein of ICR mice (22-25 g, male) The mice (n=3 for each time point) were sacrificed by cervical dislocation at indicated time points post injection. The organs of interest were removed and weighed, and the radioactivity was counted with an automatic gamma counter. The percentage dose per organ was calculated by a comparison of the tissue counts to suitably diluted aliquots of the injected material. Total activities of blood were calculated under the assumption that they were 7% of the total body weight. The % dose/g of samples was calculated by comparing the sample counts with the count of the diluted initial dose.

[2] = biological target: VMAT2 (Mus musculus, UniProt Q8BRU6); experiment: Saturation binding of 18F ligands in mouse striatal homogenates; design: The basal forebrain regions of rat and mouse brains were then dissected; from tissue; host or cells: mouse striatal homogenate; mouse brain coronal sections; conditions: estimated based on S.A.=2000 Ci/mmole
Experimental: The basal forebrain regions of rat and mouse brains were then dissected. The tissue homogenates were prepared in 50 mM Hepes, pH 7.5 and 0.3 M sucrose. The specific binding of ^3H or ^18F ligands were determined following the procedures described (Scherman D, Raisman R, Ploska A, Agid Y., [^3H]Dihydrotetrabenazine, a new in vitro monoaminergic probe for human brain, J. Neurochem., 1988:50:1131-36). Total volume of reaction for the assay was 0.2 ml. […] In saturation experiments, increasing concentrations of labeled ligand […] in 50 μl buffer were incubated with 100 μl of homogenates (100-250 μg). Incubation was carried out routinely at room temperature for 90 min. The samples were then filtered through glass fiber filters No. 25 (Schleicher and Schuell, Keene, N.H.) and the bound radioactivity was determined for ^18F in a gamma counter (Packard 5000) with 70% efficiency. Filters containing bound ^3H ligand were dissolved in 7 ml Ecolite(+) overnight and the radioactivity was counted next day in the scintillation counter (Beckman) with 65% counting efficiency. […] Nonspecific binding was determined in the presence of 10 μM tetrabenazine. Both saturation and competition experiments were analyzed using the nonlinear least-square curve fitting program LIGAND. […]

[3] = Human radiation dosimetry estimates from mouse biodistribution; conditions: adult male model
Source text: From the organ biodistribution data in Table 4 of Example 7, human radiation dosimetry estimates were calculates. In the mass based extrapolation, the concentration in the animal organs is converted to a concentration in human organs by multiplying the animal concentration by a ratio of the total body weight of the animals and humans (Kirschner, et al., 1975). Then the percent in the human organs is derived using organ masses taken from a standard model of the human body for adult males (Cristy and Eckerman, 1987). Data were fit using the SAAM II software (Foster and Barrett, 1999). Time integrals of activity were calculated and converted to residence times (Loevinger, et al., 1988); organ residence times were entered into the OLIND/EXM software (STabin, et al., 2005) using the adult male model. No excretion of activity was assumed; any activity not accounted for was considered to be uniformly distributed throughout the remainder of the body or removed only by physical decay. […] The estimated effective dose (0.047 rem/mCi) also compares favorably to radiation doses received with other approved radiopharmaceuticals.

Chain of VMAT2 (Q8BRU6 whole entry): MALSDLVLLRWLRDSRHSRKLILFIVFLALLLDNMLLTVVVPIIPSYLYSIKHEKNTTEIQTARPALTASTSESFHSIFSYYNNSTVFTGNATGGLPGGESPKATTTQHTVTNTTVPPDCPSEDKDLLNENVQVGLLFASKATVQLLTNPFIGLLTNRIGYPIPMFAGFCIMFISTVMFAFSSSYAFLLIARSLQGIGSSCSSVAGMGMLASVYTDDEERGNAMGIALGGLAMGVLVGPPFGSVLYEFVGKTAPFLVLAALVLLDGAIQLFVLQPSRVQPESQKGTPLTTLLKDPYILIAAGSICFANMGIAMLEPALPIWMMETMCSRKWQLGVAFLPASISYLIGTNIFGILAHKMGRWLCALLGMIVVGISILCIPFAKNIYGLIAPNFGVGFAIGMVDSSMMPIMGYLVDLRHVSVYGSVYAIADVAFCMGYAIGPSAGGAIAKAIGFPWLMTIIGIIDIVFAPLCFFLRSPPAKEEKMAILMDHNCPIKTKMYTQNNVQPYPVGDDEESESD

COc1cc2c(cc1OCCC[18F])CCN1CC(CC(C)C)C(O)CC21 (racemic) [[^18F]6b]
remaining in brain (brain washout) ([1]; 30 min p.i., normal mice): 13%
brain uptake ([1]; mice, iv, 2 min): 7.08 % ID/g
ST/CB ratio ([1]; mice, iv, time not stated): 3.0
Organ distribution Blood ([1]; normal mice, iv, 2 min): 2.60 ± 0.31 % dose/g
Organ distribution Bone ([1]; normal mice, iv, 2 min): 2.70 ± 0.44 % dose/g
Organ distribution Brain ([1]; normal mice, iv, 2 min): 7.08 % dose/g and 7.08 ± 2.17 % dose/g
Organ distribution Heart ([1]; normal mice, iv, 2 min): 6.79 ± 1.49 % dose/g
Organ distribution Kidney ([1]; normal mice, iv, 2 min): 16.1 ± 3.13 % dose/g
Organ distribution Liver ([1]; normal mice, iv, 2 min): 24.1 ± 4.93 % dose/g
Organ distribution Lung ([1]; normal mice, iv, 2 min): 7.97 ± 1.46 % dose/g
Organ distribution Muscle ([1]; normal mice, iv, 2 min): 1.17 ± 0.16 % dose/g
Organ distribution Skin ([1]; normal mice, iv, 2 min): 1.13 ± 0.25 % dose/g
Organ distribution Spleen ([1]; normal mice, iv, 2 min): 9.19 ± 0.26 % dose/g
Ratio (vs CB) Cortex ([1]; normal mice, iv, 2 min): 1.32
Ratio (vs CB) Hippocampus ([1]; normal mice, iv, 2 min): 1.13
Ratio (vs CB) Striatum ([1]; normal mice, iv, 2 min): 1.36
Regional brain distribution Cerebellum (CB) ([1]; normal mice, iv, 2 min): 6.26 ± 2.89 % dose/g
Regional brain distribution Cortex ([1]; normal mice, iv, 2 min): 8.25 ± 2.51 % dose/g
Regional brain distribution Hippocampus ([1]; normal mice, iv, 2 min): 7.07 ± 1.66 % dose/g
Regional brain distribution Striatum ([1]; normal mice, iv, 2 min): 8.49 ± 1.12 % dose/g
Organ distribution Blood ([1]; normal mice, iv, 15 min): 1.75 ± 0.07 % dose/g
Organ distribution Bone ([1]; normal mice, iv, 15 min): 3.65 ± 0.49 % dose/g
Organ distribution Brain ([1]; normal mice, iv, 15 min): 2.01 ± 0.10 % dose/g
Organ distribution Heart ([1]; normal mice, iv, 15 min): 2.43 ± 0.16 % dose/g
Organ distribution Kidney ([1]; normal mice, iv, 15 min): 5.90 ± 0.25 % dose/g
Organ distribution Liver ([1]; normal mice, iv, 15 min): 15.8 ± 1.65 % dose/g
Organ distribution Lung ([1]; normal mice, iv, 15 min): 3.58 ± 0.33 % dose/g
Organ distribution Muscle ([1]; normal mice, iv, 15 min): 1.16 ± 0.35 % dose/g
Organ distribution Skin ([1]; normal mice, iv, 15 min): 1.15 ± 0.16 % dose/g
Organ distribution Spleen ([1]; normal mice, iv, 15 min): 3.38 ± 0.49 % dose/g
Ratio (vs CB) Cortex ([1]; normal mice, iv, 15 min): 1.00
Ratio (vs CB) Hippocampus ([1]; normal mice, iv, 15 min): 1.31
Ratio (vs CB) Striatum ([1]; normal mice, iv, 15 min): 2.53
Regional brain distribution Cerebellum (CB) ([1]; normal mice, iv, 15 min): 1.63 ± 0.05 % dose/g
Regional brain distribution Cortex ([1]; normal mice, iv, 15 min): 1.62 ± 0.05 % dose/g
Regional brain distribution Hippocampus ([1]; normal mice, iv, 15 min): 2.14 ± 0.16 % dose/g
Regional brain distribution Striatum ([1]; normal mice, iv, 15 min): 4.12 ± 0.52 % dose/g
Organ distribution Blood ([1]; normal mice, iv, 30 min): 1.92 ± 0.22 % dose/g
Organ distribution Bone ([1]; normal mice, iv, 30 min): 9.62 ± 3.42 % dose/g
Organ distribution Brain ([1]; normal mice, iv, 30 min): 1.76 ± 0.27 % dose/g
Organ distribution Heart ([1]; normal mice, iv, 30 min): 2.67 ± 0.26 % dose/g
Organ distribution Kidney ([1]; normal mice, iv, 30 min): 6.80 ± 0.65 % dose/g
Organ distribution Liver ([1]; normal mice, iv, 30 min): 17.3 ± 2.00 % dose/g
Organ distribution Lung ([1]; normal mice, iv, 30 min): 3.46 ± 0.36 % dose/g
Organ distribution Muscle ([1]; normal mice, iv, 30 min): 1.53 ± 0.16 % dose/g
Organ distribution Skin ([1]; normal mice, iv, 30 min): 2.22 ± 0.20 % dose/g
Organ distribution Spleen ([1]; normal mice, iv, 30 min): 3.40 ± 0.43 % dose/g
Ratio (vs CB) Cortex ([1]; normal mice, iv, 30 min): 1.11
Ratio (vs CB) Hippocampus ([1]; normal mice, iv, 30 min): 1.97
Ratio (vs CB) Striatum ([1]; normal mice, iv, 30 min): 3.0 and 2.95
Regional brain distribution Cerebellum (CB) ([1]; normal mice, iv, 30 min): 1.30 ± 0.19 % dose/g
Regional brain distribution Cortex ([1]; normal mice, iv, 30 min): 1.45 ± 0.38 % dose/g
Regional brain distribution Hippocampus ([1]; normal mice, iv, 30 min): 2.55 ± 1.20 % dose/g
Regional brain distribution Striatum ([1]; normal mice, iv, 30 min): 3.84 ± 1.05 % dose/g
Organ distribution Bone ([1]; normal mice, iv, 30 min, listed as [^1F]6b): 9.62 % dose/g
Organ distribution Blood ([1]; normal mice, iv, 1 hr): 1.04 ± 0.07 % dose/g
Organ distribution Bone ([1]; normal mice, iv, 1 hr): 16.6 ± 1.60 % dose/g
Organ distribution Brain ([1]; normal mice, iv, 1 hr): 0.91 ± 0.25 % dose/g
Organ distribution Heart ([1]; normal mice, iv, 1 hr): 1.74 ± 0.14 % dose/g
Organ distribution Kidney ([1]; normal mice, iv, 1 hr): 3.63 ± 0.30 % dose/g
Organ distribution Liver ([1]; normal mice, iv, 1 hr): 10.4 ± 0.95 % dose/g
Organ distribution Lung ([1]; normal mice, iv, 1 hr): 2.15 ± 0.12 % dose/g
Organ distribution Muscle ([1]; normal mice, iv, 1 hr): 1.05 ± 0.41 % dose/g
Organ distribution Skin ([1]; normal mice, iv, 1 hr): 1.38 ± 0.03 % dose/g
Organ distribution Spleen ([1]; normal mice, iv, 1 hr): 2.05 ± 0.05 % dose/g
Ratio (vs CB) Cortex ([1]; normal mice, iv, 1 hr): 1.10
Ratio (vs CB) Hippocampus ([1]; normal mice, iv, 1 hr): 1.35
Ratio (vs CB) Striatum ([1]; normal mice, iv, 1 hr): 2.71
Regional brain distribution Cerebellum (CB) ([1]; normal mice, iv, 1 hr): 0.77 ± 0.06 % dose/g
Regional brain distribution Cortex ([1]; normal mice, iv, 1 hr): 0.85 ± 0.12 % dose/g
Regional brain distribution Hippocampus ([1]; normal mice, iv, 1 hr): 1.04 ± 0.16 % dose/g
Regional brain distribution Striatum ([1]; normal mice, iv, 1 hr): 2.08 ± 0.27 % dose/g
Organ distribution Blood ([1]; normal mice, iv, 2 hr): 0.56 ± 0.07 % dose/g
Organ distribution Bone ([1]; normal mice, iv, 2 hr): 17.8 ± 1.83 % dose/g
Organ distribution Brain ([1]; normal mice, iv, 2 hr): 0.53 ± 0.05 % dose/g
Organ distribution Heart ([1]; normal mice, iv, 2 hr): 1.02 ± 0.09 % dose/g
Organ distribution Kidney ([1]; normal mice, iv, 2 hr): 2.40 ± 0.51 % dose/g
Organ distribution Liver ([1]; normal mice, iv, 2 hr): 8.53 ± 1.73 % dose/g
Organ distribution Lung ([1]; normal mice, iv, 2 hr): 1.40 ± 0.09 % dose/g
Organ distribution Muscle ([1]; normal mice, iv, 2 hr): 0.56 ± 0.11 % dose/g
Organ distribution Skin ([1]; normal mice, iv, 2 hr): 1.24 ± 0.53 % dose/g
Organ distribution Spleen ([1]; normal mice, iv, 2 hr): 1.15 ± 0.41 % dose/g
Ratio (vs CB) Cortex ([1]; normal mice, iv, 2 hr): 0.91
Ratio (vs CB) Hippocampus ([1]; normal mice, iv, 2 hr): 1.12
Ratio (vs CB) Striatum ([1]; normal mice, iv, 2 hr): 1.94
Regional brain distribution Cerebellum (CB) ([1]; normal mice, iv, 2 hr): 0.45 ± 0.01 % dose/g
Regional brain distribution Cortex ([1]; normal mice, iv, 2 hr): 0.41 ± 0.06 % dose/g
Regional brain distribution Hippocampus ([1]; normal mice, iv, 2 hr): 0.50 ± 0.06 % dose/g
Regional brain distribution Striatum ([1]; normal mice, iv, 2 hr): 0.87 ± 0.24 % dose/g
Kd [2]: 0.48 nM

COc1cc2c(cc1OCCC[18F])CCN1C[C@@H](CC(C)C)[C@H](O)C[C@H]21 [[^18F]-(+)-6b]
human radiation dose, liver and bone surface [3]: around 0.11 rem/mCi
human radiation dose, most organs [3]: 0.04-0.06 rem/mCi
